# Experimental data: patent publication US20260262638A1, “AGRICULTURAL COMPOSITION” (priority 2022, published 2026)
# Several values for one entry are separate records, joined by “and”; a condition that tells them apart may be missing. Equal values may be shown once.
# Test system: nematodes
# Assay: Nematicide laboratory bioassay in ELISA plates, nematode mortality 24 h after treatment
# Type: in vivo
# Experimental: Bioassays were designed to determine the efficacy of tested formulations, and included the following steps: • 1. nematode extraction from carrot disks using the mesh extraction method; • 2. counting of extracted nematodes in a sample of 100 μL of water; • 3. preferably, nematode count in such a sample is between 40-80 nematodes; • 4. determining efficacy in ELISA plates; • 5. preparing a stock solution that is 10 times more diluted than the main formulation for all treatments; • 6. for treatments tested at 5% or 1.5%, aliquots of 50 μL or 15 μL of the corresponding stock solution were introduced to a well, respectively. Volume was completed with 50 μL of the nematode extract, except for treatments tested at 1.5%, an additional 35 μL of distilled water was introduced to reach a total volume of 100 μL. Content of the well was sufficiently mixed with a pipette, to ensure proper distribution of both nematodes and treatment components; • 7. performing at least 6 replicates of every treatment. The flask containing the nematode colony was mixed by manual shaking every time before nematodes were introduced to the well. This way we ensure a somewhat homogenous nematode count and avoid nematodes settling at the bottom of the flask; • 8. keeping the whole ELISA plate in dark conditions for 24 hours after introduction of the treatment; and • 9. assessing nematode mortality 24 hours after treatment under stereoscope. Nematodes that were moving were considered alive. Nematodes that were not moving were poked with a fine brush, if they respond to the poking with slight movements, they were considered alive. If not, they were considered dead.
# The only validity criterium was that nematode mortality in the negative controls should not exceed 10%.
# The raw mortality data was analyzed using RStudio (version 1.4.1717). The data sets were subjected to Shapiro-Wilk test for normality (α=0.05). Data was not normally distributed; therefore, a Kruskal-Wallis test was applied. Where there was significance, a Wilcoxon rank sum t-test was performed for pairwise comparisons between treatment groups.
# [1] = mean over replicates, 24 h, tested dose per Table 2
# [2] = sum over replicates, 24 h, tested dose per Table 2
smiles,measurement,setting,value
CNC(=O)O/N=C(\SC)C(=O)N(C)C [Oxamyl],mean alive,[1],20.50
same,mean dead,[1],22.17
same,alive,"nematodes counted alive per replicate well, 24 h after treatment, tested dose per Table 2",22 and 20 and 25 and 17 and 24 and 18 and 7 and 27 and 5 and 34 and 21 and 26
same,Dead,"nematodes counted dead per replicate well, 24 h after treatment, tested dose per Table 2 (5%, 1.5% or 1% w/v)",24 and 34 and 29 and 20 and 31 and 39 and 15 and 4 and 18 and 5 and 22 and 25
same,total alive,[2],246
same,total dead,[2],266
same,Mortality (%) 24 h post exposure,"tested dose per Table 2 (5%, 1.5% or 1% w/v)",50.76%
